In paper PMC10509173, “Deep learning driven de novo drug design based on gastric proton pump structures” (Communications Biology, 2023):
Several values for one entry are separate records, joined by “and”; a condition that tells them apart may be missing. Equal entries are not always repeated.

Target: H+,K+-ATPase (Sus scrofa, UniProt P19156)
Experiment: Dose-dependent inhibition of H+,K+-ATPase activity, membrane fractions
Details: for H+,K+-ATPase activity, raw data of dose-dependent inhibition: single replicate values
[1] = [PCAB] -3.30103 (log, unit not given)
[2] = [PCAB] -3.52288 (log, unit not given)
[3] = [PCAB] -4 (log, unit not given)
[4] = [PCAB] -4.30103 (log, unit not given)
[5] = [PCAB] -4.52288 (log, unit not given)
[6] = [PCAB] -5 (log, unit not given)
[7] = [PCAB] -5.52288 (log, unit not given)
[8] = [PCAB] -6 (log, unit not given)
[9] = [PCAB] -6.30103 (log, unit not given)
[10] = [PCAB] -7 (log, unit not given)
[11] = [PCAB] -8 (log, unit not given)
[12] = [PCAB] -11 (log, unit not given; possibly placeholder for no compound)

H+,K+-ATPase, sequence (P19156 2-1034 limits assumed): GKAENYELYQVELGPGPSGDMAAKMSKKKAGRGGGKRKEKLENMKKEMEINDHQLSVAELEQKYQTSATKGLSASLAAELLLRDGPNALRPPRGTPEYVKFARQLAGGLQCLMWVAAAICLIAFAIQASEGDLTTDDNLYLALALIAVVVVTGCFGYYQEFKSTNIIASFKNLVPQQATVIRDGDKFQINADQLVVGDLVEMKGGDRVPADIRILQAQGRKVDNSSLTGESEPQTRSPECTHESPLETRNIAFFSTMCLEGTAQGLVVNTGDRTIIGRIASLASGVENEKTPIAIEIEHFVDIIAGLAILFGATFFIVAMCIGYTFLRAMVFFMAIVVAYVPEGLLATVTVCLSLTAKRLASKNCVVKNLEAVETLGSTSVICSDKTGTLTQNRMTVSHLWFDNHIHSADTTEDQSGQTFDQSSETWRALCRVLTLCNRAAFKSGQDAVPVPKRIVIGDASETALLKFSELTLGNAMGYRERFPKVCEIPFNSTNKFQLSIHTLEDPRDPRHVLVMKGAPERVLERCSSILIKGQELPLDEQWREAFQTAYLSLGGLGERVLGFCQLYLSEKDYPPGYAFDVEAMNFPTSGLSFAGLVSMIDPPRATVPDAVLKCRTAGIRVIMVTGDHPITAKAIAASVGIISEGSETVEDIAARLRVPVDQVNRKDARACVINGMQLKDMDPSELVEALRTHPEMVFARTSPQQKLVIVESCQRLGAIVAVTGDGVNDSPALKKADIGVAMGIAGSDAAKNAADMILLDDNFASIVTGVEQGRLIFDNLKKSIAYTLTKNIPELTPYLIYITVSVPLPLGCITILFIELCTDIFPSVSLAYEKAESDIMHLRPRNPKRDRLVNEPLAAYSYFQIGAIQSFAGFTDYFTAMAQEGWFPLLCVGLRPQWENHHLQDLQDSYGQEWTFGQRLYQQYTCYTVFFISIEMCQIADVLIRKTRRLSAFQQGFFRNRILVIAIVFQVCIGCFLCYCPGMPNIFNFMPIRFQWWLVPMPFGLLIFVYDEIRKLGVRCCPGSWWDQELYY
H+,K+-ATPase, sequence (P18434 whole entry partner): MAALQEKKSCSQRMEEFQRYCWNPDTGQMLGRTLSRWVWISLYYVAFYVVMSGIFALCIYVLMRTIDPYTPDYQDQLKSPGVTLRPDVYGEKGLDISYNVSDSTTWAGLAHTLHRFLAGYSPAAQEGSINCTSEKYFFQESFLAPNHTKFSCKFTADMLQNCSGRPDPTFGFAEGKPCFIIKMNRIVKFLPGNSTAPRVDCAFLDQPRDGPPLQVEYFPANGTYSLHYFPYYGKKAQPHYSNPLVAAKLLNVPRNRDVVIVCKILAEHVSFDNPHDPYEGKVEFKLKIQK

Structure (SMILES) | IC50 [µM] | H+,K+-ATPase activity, raw data of dose-dependent inhibition [1] | H+,K+-ATPase activity, raw data of dose-dependent inhibition [2] | H+,K+-ATPase activity, raw data of dose-dependent inhibition [3] | H+,K+-ATPase activity, raw data of dose-dependent inhibition [4] | H+,K+-ATPase activity, raw data of dose-dependent inhibition [5] | H+,K+-ATPase activity, raw data of dose-dependent inhibition [6] | H+,K+-ATPase activity, raw data of dose-dependent inhibition [7] | H+,K+-ATPase activity, raw data of dose-dependent inhibition [8] | H+,K+-ATPase activity, raw data of dose-dependent inhibition [9] | H+,K+-ATPase activity, raw data of dose-dependent inhibition [10] | H+,K+-ATPase activity, raw data of dose-dependent inhibition [11] | H+,K+-ATPase activity, raw data of dose-dependent inhibition [12] | other results
CNCC#CCOCc1cc(Cl)ccc1-c1ccc(Cl)c(F)c1 [DQ-04] | 33.9 ± 3.8 | 0.25 and -0.25 and -0.38 and 0.38 and -0.3 and -3.39 | 1.96 and 3.36 and 3.54 and 3.3 and 3.08 and 0.78 | 36.71 and 36.26 and 38.13 and 35.18 and 35.01 and 32.77 | 44 and 42.16 and 21.74 and 21.63 and 20.87 and 17.27 | 54.64 and 55.71 and 47.64 and 52.61 and 61.59 and 63.39 | 84.91 and 81.14 and 76.84 and 80.91 and 85.5 and 81.75 | 98.14 and 98.72 and 86.17 and 97.35 and 92.86 and 93.01 | 100.43 and 99.64 (2×) and 95.5 and 94.06 and 98.22 | 97.37 and 99.94 and 104.98 and 87.87 and 104.85 and 101.28 | 98.23 and 101.36 and 99.76 and 99.57 and 100.69 and 98.11 | 101.57 and 100.61 and 99.59 and 102.17 and 101.49 and 97.6 | 101.41 and 100.27 and 102.04 and 101.19 and 98.33 and 99.11 | 
CNCc1ccc(OCc2cc(Cl)ccc2OCc2ccc(Cl)cc2)c(Cl)c1 [DQ-07] | 3.2 ± 0.2 | 0.27 and 0.6 and 3.27 and 8.56 and 2.84 and 6.16 | -0.35 and -0.17 and 2.58 and 2.95 and 2.71 and 3.29 | -1.84 and -1.63 and 1.31 and 1.18 and 1.05 and 1.62 | -1.84 and -1.6 and 2.69 and 2.52 and 2.83 and 2.8 | -1.24 and -1.47 and 3.31 and 3.19 and 3.75 and 3.57 | 4.55 and 4.67 and 12.66 and 12.06 and 13.24 and 12.08 | 45.69 and 44.11 and 51.61 and 59.03 and 63.14 and 61.87 | 84.95 (2×) and 82.82 and 90.61 and 90.08 and 95.69 | 90.87 and 90.7 and 95.03 and 96.7 and 92.33 and 94.31 | 96.69 and 96.52 and 102.14 and 98.38 and 97.9 and 99.91 | 96.57 and 99.63 and 102.72 and 99.81 and 97.87 and 101.66 | 100.45 and 97.72 and 103.9 and 100.73 and 98.44 and 100.87 | 
CNCC#CCn1ccnc1NC(=O)c1ccccc1 [DQ-09] | > 2000 |  |  |  |  |  |  |  |  |  |  |  | 99.26 and 98.65 and 101.5 and 98.45 and 98.97 and 101.13 | H+,K+-ATPase activity, raw data of dose-dependent inhibition ([PCAB] -3.455 (log, unit not given)): 63.11 and 66.04 and 91.33 and 94.1 and 93.4 and 93.07; H+,K+-ATPase activity, raw data of dose-dependent inhibition ([PCAB] -3.67685 (log, unit not given)): 81.52 and 80.18 and 94.54 and 95.44 and 96.5 and 95.18; H+,K+-ATPase activity, raw data of dose-dependent inhibition ([PCAB] -4.15397 (log, unit not given)): 92.95 and 94.76 and 92.15 and 93.44 and 92.03 and 93.77; H+,K+-ATPase activity, raw data of dose-dependent inhibition ([PCAB] -4.455 (log, unit not given)): 99 and 99.88 and 97.42 and 97.61 and 95.39 and 91.33; H+,K+-ATPase activity, raw data of dose-dependent inhibition ([PCAB] -4.67685 (log, unit not given)): 97.65 and 97.31 and 107.67 and 103.09 and 98.87 and 105.02; H+,K+-ATPase activity, raw data of dose-dependent inhibition ([PCAB] -5.15397 (log, unit not given)): 99.93 and 96.29 and 97.51 and 98.34 and 88.34 and 93.86; H+,K+-ATPase activity, raw data of dose-dependent inhibition ([PCAB] -5.67685 (log, unit not given)): 101.49 and 99.52 and 93.88 and 106.02 and 103.98 and 106.05; H+,K+-ATPase activity, raw data of dose-dependent inhibition ([PCAB] -6.15397 (log, unit not given)): 99.11 and 99.53 and 98.71 and 99.47 and 95.43 and 99.9; H+,K+-ATPase activity, raw data of dose-dependent inhibition ([PCAB] -7.00046 (log, unit not given)): 100.13 and 101.44 and 98.87 and 102.62 and 97 and 100.92; H+,K+-ATPase activity, raw data of dose-dependent inhibition ([PCAB] -7.15397 (log, unit not given)): 100.4 and 99.7 and 97.72 and 99.58 and 95.86 and 98.79; H+,K+-ATPase activity, raw data of dose-dependent inhibition ([PCAB] -8.15397 (log, unit not given)): 99.08 and 99.65 and 97.54 and 97.72 and 99.14 and 96.06
OCc1ccc(OCc2ccccc2OCc2ccccc2)cc1 [DQ-10] | 292 ± 67 | 43.38 and 44.41 and 45.92 and 45.13 and 45.42 and 45.93 | 45.74 and 44.58 and 47.45 and 47.39 and 47.18 and 50.77 | 56.05 and 53.52 and 55.98 and 54.18 and 54.88 and 57.9 | 76.31 and 75.72 and 105.39 and 105.73 and 101.62 and 104.74 | 93.17 and 93.5 and 97.58 and 97.31 and 105.67 and 98.13 | 105.05 and 103.17 and 107.45 and 104.86 and 105.64 and 102 | 97.45 and 97.17 and 101.99 and 103.63 and 102.59 and 100.01 | 100.27 and 101.99 and 106.56 and 102.96 and 101.68 and 100.85 | 96.05 and 88 and 94.05 and 95.4 and 97.95 and 97.13 | 93.18 and 94.04 and 98.08 and 97.4 and 96.62 and 95.63 | 97.94 and 95.96 and 97.5 and 99.04 and 99.69 and 102.43 | 97.84 and 98.7 and 100.06 and 101.42 and 100.78 and 96 | 
CN(C)Cc1ccc(OCc2ccccc2OCc2ccccc2)cc1 [DQ-11] | 5.57 ± 0.45 | -9.05 and -9.17 and -0.38 and -0.55 and 0.75 and 0.18 | -7.01 and -7.07 and 0.86 and 1.01 and 0.22 and 0.76 | 0.73 and 0.95 and 7.54 and 7.57 and 6.64 and 7.22 | 5.75 and 5.69 and 7.96 (2×) and 7.99 and 7.73 | 10.92 and 10.91 and 16.8 and 13.24 and 16.06 and 16.58 | 34.05 and 32.3 and 39.91 and 37.9 and 37.76 and 40.04 | 63.88 and 61.74 and 70.3 and 67.49 and 63.1 and 68.35 | 89.53 and 87.88 and 83.74 and 79.92 and 83.72 and 84.81 | 90.62 and 87.46 and 94.24 and 93.36 and 93.48 and 92.73 | 95.63 and 90.8 and 99.34 and 102.28 and 88.88 and 100.71 | 97.6 and 94.94 and 102 and 102.29 and 100.82 and 103.84 | 102.26 and 95.06 and 98.26 and 100.19 and 96.56 and 106.72 | 
NCc1ccc(OCc2ccccc2OCc2ccccc2)cc1 [DQ-12] | 1.54 ± 0.07 | -2.13 and -5.12 and -1.35 and 1.97 and -1.31 and 0.69 | -0.8 and -0.12 and -1.95 (2×) and -1.32 and -0.19 | 0.73 and 0 and -0.35 and -0.11 and -0.2 and 0.01 | 3.34 and 3.14 and -0.81 and -0.94 and -0.85 and -0.15 | 5.83 and 5.43 and 5.22 and 6.02 and 6.1 and 5.29 | 14.6 and 14.36 and 13.48 and 12.93 and 13.73 and 12.81 | 35.47 and 34.66 and 35.13 and 34.7 and 33.05 and 34.53 | 63.22 and 63.5 and 59.87 and 57.62 and 57.1 and 58.43 | 74.96 and 75.04 and 76.55 and 75.62 and 74.4 and 76.41 | 91.01 and 87.51 and 98.57 and 99.1 and 95.69 and 97.51 | 96.05 and 93.52 and 100.03 and 97.19 and 98.53 and 98.62 | 97.64 and 96.4 and 100.03 and 99.55 and 98.47 and 102.15 | 
CNCC#CCn1ccc2cccc(C#Cc3ccccc3)c21 [DQ-14] | > 120 | 27.73 and 26.74 and 25.35 and 26.06 | 28.44 and 23.96 and 24.12 and 24.35 | 60.7 and 61.39 and 60.36 and 56.79 | 84.92 and 80.56 and 95.68 and 93.2 and 92.03 and 93.46 | 87.04 and 84.8 and 98.89 and 98.98 and 99.17 and 99.96 | 106.23 and 102.41 and 111.55 and 99.92 and 109.43 and 110.94 | 106.37 and 107.48 and 116.43 and 116.24 and 113.84 and 116.41 | 99.88 and 98.19 and 102.47 and 100.9 and 103.05 and 104.28 | 101.13 and 91.4 and 101.1 and 101.3 | 93.06 and 99.72 and 100.85 and 100.56 and 98.57 | 95.47 and 97.96 and 97.95 and 99.07 and 96.42 and 98.64 | 103.16 and 99.44 and 101.23 and 99.08 and 99.88 and 99.77 | 
